From patent US12180189B2, “Proteostasis regulators” (Kineta, Inc., priority 2011, dated 2024) come the findings set out here.

Sequence of USP14 (P54578 whole entry): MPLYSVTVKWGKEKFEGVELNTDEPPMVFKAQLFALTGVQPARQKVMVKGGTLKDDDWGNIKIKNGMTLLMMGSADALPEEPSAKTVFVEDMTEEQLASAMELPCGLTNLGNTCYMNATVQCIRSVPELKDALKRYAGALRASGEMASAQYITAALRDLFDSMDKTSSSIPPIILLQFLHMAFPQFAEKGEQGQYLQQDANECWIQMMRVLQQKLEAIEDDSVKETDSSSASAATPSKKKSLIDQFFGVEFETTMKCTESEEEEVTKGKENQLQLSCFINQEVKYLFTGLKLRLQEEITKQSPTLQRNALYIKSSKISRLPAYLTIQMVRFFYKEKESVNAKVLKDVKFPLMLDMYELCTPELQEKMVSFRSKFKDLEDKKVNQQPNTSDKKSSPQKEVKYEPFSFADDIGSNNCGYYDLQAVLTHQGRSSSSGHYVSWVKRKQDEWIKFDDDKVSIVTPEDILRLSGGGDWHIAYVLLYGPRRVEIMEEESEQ
Sequence of USP14 (Q13200 whole entry partner): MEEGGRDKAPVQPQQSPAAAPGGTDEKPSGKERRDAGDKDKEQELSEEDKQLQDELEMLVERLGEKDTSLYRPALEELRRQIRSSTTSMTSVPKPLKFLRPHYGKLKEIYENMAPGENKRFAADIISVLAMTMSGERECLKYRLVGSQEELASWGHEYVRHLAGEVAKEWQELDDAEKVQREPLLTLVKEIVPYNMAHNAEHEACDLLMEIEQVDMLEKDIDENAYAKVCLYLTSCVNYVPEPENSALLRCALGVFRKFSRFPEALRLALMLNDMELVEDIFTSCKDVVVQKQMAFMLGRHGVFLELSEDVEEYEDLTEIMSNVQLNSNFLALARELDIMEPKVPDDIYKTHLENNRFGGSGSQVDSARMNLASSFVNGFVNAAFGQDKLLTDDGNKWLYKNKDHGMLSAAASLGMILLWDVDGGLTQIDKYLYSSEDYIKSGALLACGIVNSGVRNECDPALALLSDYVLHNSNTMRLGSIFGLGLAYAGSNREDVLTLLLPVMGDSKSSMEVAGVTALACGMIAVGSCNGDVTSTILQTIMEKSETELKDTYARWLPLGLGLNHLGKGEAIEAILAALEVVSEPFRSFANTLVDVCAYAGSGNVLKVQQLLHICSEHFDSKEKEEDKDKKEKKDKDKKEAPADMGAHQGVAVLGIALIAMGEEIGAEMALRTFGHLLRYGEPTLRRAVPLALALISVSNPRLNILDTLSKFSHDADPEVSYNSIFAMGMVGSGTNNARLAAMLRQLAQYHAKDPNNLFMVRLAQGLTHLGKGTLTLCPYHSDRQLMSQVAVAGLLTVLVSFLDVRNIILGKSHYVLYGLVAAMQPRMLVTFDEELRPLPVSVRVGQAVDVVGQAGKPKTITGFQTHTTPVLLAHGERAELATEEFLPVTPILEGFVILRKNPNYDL
Sequence of USP14 (P35998 whole entry partner): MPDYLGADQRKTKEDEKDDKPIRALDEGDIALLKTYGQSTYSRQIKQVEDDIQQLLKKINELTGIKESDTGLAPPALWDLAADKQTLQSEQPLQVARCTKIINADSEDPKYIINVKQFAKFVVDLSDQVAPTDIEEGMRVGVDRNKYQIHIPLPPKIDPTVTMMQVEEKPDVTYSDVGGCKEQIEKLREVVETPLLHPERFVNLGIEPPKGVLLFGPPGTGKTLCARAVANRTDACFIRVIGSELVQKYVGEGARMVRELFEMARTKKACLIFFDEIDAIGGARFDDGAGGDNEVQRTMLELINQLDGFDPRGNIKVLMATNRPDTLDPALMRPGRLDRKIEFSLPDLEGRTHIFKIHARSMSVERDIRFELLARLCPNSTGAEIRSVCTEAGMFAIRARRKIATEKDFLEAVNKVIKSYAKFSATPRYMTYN

This experiment deals with USP14 (Homo sapiens, UniProt P54578). The experiment is described as follows: USP14 inhibition (methodology of B. H. Lee et al. Nature 2010). The note with it: average value from three experimental determinations. In kind it is biochemical. As to the method:
Known USP14 inhibitor IU1 (1-(1-(4-fluorophenyl)-2,5-dimethyl-1H-pyrrol-3-yl)-2-(pyrrolidin-1-yl)ethanone; B. H. Lee et al. Nature 2010, 467 (9), 179) was used as a comparative reference agent. The IC50 values in the Table below represent the average value from three experimental determinations. In the table below, “A” represents an IC50 of 0 to 5 uM, “B” represents an IC50 of 5 to 10 uM, and “C” represents and IC50 of greater than 10 uM.
Regarding `O=C(CN1CCCC1)N1CCN(c2ccc(Cl)cc2)CC1` [Compound A31, 1-(4-(4-chlorophenyl)piperazin-1-yl)-2-(pyrrolidin-1-yl)ethanone], the half-maximal inhibitory concentration (IC50) is over 10 µM.

For `Cc1nn(-c2ccc(Cl)cc2)c(C)c1C(=O)CN(C)C1CC1` [Compound A20, 1-[1-(4-Chloro-phenyl)-3,5-dimethyl-1H-pyrazol-4-yl]-2-(Cyclopropyl-methyl-amino)-ethanone], the half-maximal inhibitory concentration (IC50) is over 10 µM.

Consider `Cc1cc(C(=O)CC2CCCCC2)c(C)n1-c1ccc(Cl)cc1` [Compound A2, 1-[1-(4-Chloro-phenyl)-2,5-dimethyl-1H-pyrrol-3-yl]-2cyclohexyl-ethanone], for which the IC50 is over 10 µM.

`Cc1sc(-c2ccc(Cl)cc2)cc1C(=O)CN1CCCCC1` [Compound A27, 1-(5-(4-chlorophenyl)-2-methylthiophen-3-yl)-2-(piperidin-1-yl)ethanone] displayed an IC50 of over 10 µM.

`Cc1oc(-c2ccc(Cl)cc2)nc1C(=O)CN1CCCCC1` [Compound A25, 1-[2-(4-Chloro-phenyl)-5-methyl-oxazol-4-yl]-2-piperidin-1-yl-ethanone]: the half-maximal inhibitory concentration (IC50) is over 10 µM.

The molecule `Cc1nn(-c2ccc(Cl)cc2)c(C)c1C(=O)CN1CCCCC1` [Compound A18, 1-[1-(4-Chloro-phenyl)-3,5-dimethyl-1H-pyrazol-4-yl]-2-piperidin-1-yl-ethanone] had a concentration for half-maximal inhibition (IC50) of 5 to 10 µM.

In turn, `Cc1cc(C(=O)CC(F)(F)F)c(C)n1-c1ccc(Cl)cc1` [Compound A4, 1-(1-(4-chlorophenyl)-2,5-dimethyl-1H-pyrrol-3-yl)-3,3,3-trifluoropropan-1-one] registered an IC50 of over 10 µM.

For the molecule `Cc1sc(-c2ccc(Cl)cc2)cc1C(=O)CN1CCC(F)CC1` [Compound A28, 1-(5-(4-chlorophenyl)-2-methylthiophen-3-yl)-2-(4-fluoropiperidin-1-yl)ethanone], the half-maximal inhibitory concentration (IC50) was over 10 µM.

On to `Cc1cc(C(=O)CCl)c(C)n1-c1ccc(Cl)cc1` [Compound A8, 2-chloro-1-(1-(4-chlorophenyl)-2,5-dimethyl-1H-pyrrol-3-yl)ethanone], for which the IC50 was over 10 µM.

The molecule `Cc1cc(C(=O)CC2CCCC2)c(C)n1-c1ccc(Cl)cc1` [Compound A1, 1-[1-(4-Chloro-phenyl)-2,5-dimethyl-1H-pyrrol-3-yl]-2-cyclopentyl-ethanone] had an IC50 of over 10 µM.

In turn, `Cc1sc(-c2ccc(Cl)cc2)cc1C(=O)CN1CCC(O)CC1` [Compound A29, 1-(5-(4-chlorophenyl)-2-methylthiophen-3-yl)-2-(4-hydroxypiperidin-1-yl)ethanone] gave an IC50 of over 10 µM.

The molecule `Cc1cc(C(=O)Cn2ccnc2)c(C)n1-c1ccc(Cl)cc1` [Compound A10, 1-[1-(4-Chloro-phenyl)-2,5-dimethyl-1H-pyrrol-3-yl]-2-imidazol-1-yl-ethanone] showed a half-maximal inhibitory concentration (IC50) of over 10 µM.

For the molecule `Cc1cc(C(=O)Cn2cccc2)c(C)n1-c1ccc(Cl)cc1` [Compound A9, 1-[1-(4-Chloro-phenyl)-2,5-dimethyl-1H-pyrrol-3-yl]-2-pyrrol-1-yl-ethanone], the IC50 was over 10 µM.

In the case of `Cc1c(C(=O)CN2CCCC2)cnn1-c1ccc(Cl)cc1` [Compound A14, 1-[1-(4-Chloro-phenyl)-5-methyl-1H-pyrazol-4-yl]-2-pyrrolidin-1-yl-ethanone], the IC50 was under 5 µM.

`Cc1nn(-c2ccc(Cl)cc2)c(C)c1C(=O)CN1CCCC1` [Compound A19, 1-[1-(4-Chloro-phenyl)-3,5-dimethyl-1H-pyrazol-4-yl]-2-Pyrrolidine-1-yl-ethanone]: the IC50 was under 5 µM.

Take `Cc1c(C(=O)CN2CCCC2)nnn1-c1ccc(F)cc1` [Compound A30, 1-(1-(4-fluorophenyl)-5-methyl-1H-1,2,3-triazol-4-yl)-2-(pyrrolidin-1-yl)ethanone]: the half-maximal inhibitory concentration (IC50) is over 10 µM.

`Cc1cc(C(=O)CN2CCCC2)c(C)n1C` [Compound A12, 2-(pyrrolidin-1-yl)-1-(1,2,5-trimethyl-1H-pyrrol-3-yl)ethanone] yielded an IC50 of over 10 µM.

Turning to `Cc1cc(C(=O)C(F)F)c(C)n1-c1ccc(Cl)cc1` [Compound A3, 1-(1-(4-chlorophenyl)-2,5-dimethyl-1H-pyrrol-3-yl)-2,2-difluoroethanone], the concentration for half-maximal inhibition (IC50) is over 10 µM.

For the molecule `Cc1cc(C(=O)C(C)N2CCC(C(N)=O)CC2)c(C)n1-c1ccc(Cl)cc1` (stereo not shown) [Compound A44], the IC50 was over 10 µM.

`CNC(=O)C1CCN(C(C)C(=O)c2cc(C)n(-c3ccc(Cl)cc3)c2C)CC1` (stereo not shown) [Compound A45] registered a 50% inhibitory concentration (IC50) of over 10 µM.

`Cc1cc(C(=O)CN2CCCCC2)c(C)n1C` [Compound A11, 2-(piperidin-1-yl)-1-(1,2,5-trimethyl-1H-pyrrol-3-yl)ethanone] gave a 50% inhibitory concentration (IC50) of over 10 µM.

`O=C(CN1CCCCC1)c1cnn(-c2ccc(Cl)cc2)c1` [Compound A22, 1-[1-(4-Chloro-phenyl)-1H-pyrazol-4-yl]-2-piperidin-1-yl-ethanone] returned an IC50 of over 10 µM.

As to `Cc1cc(C#N)c(C)n1-c1ccc(Cl)cc1` [Compound A47], the IC50 was over 10 µM.

`O=C(CN1CCCCC1)N1CCN(c2ccc(F)cc2)CC1` [Compound A32, 1-(4-(4-fluorophenyl)piperazin-1-yl)-2-(piperidin-1-yl)ethanone] yielded an IC50 of over 10 µM.

`Cc1nn(-c2ccc(Cl)cc2)c(C)c1C(=O)CC1CCCCC1` [Compound A21, 1-(1-(4-chlorophenyl)-3,5-dimethyl-1H-pyrazol-4-yl)-2-cyclohexylethanone] gave a 50% inhibitory concentration (IC50) of over 10 µM.

`Cc1cc(C(=O)C(=O)O)c(C)n1-c1ccc(Cl)cc1` [Compound A5, 2-(1-(4-chlorophenyl)-2,5-dimethyl-1H-pyrrol-3-yl)-2-oxoacetic acid] came in with an IC50 of over 10 µM.

As to `CN(CC(=O)c1cnn(-c2ccc(Cl)cc2)c1)C1CC1` [Compound A24, 1-[1-(4-Chloro-phenyl)-1H-pyrazol-4-yl]-2-(cyclopropyl-methyl-amino)-ethanone], the IC50 is over 10 µM.

Molecule `O=C(CN1CCCCC1)c1cc(-c2ccc(Cl)cc2)ns1` [Compound A26] had an IC50 of over 10 µM.

The molecule `Cc1cc(C(=O)C(=O)N2CCC(F)CC2)c(C)n1-c1ccc(Cl)cc1` [Compound A7, 1-(1-(4-chlorophenyl)-2,5-dimethyl-1H-pyrrol-3-yl)-2-(4-fluoropiperidin-1-yl)ethane-1,2-dione] registered a 50% inhibitory concentration (IC50) of over 10 µM.

In turn, `O=C(CN1CCCC1)c1cnn(-c2ccc(Cl)cc2)c1` [Compound A23, 1-[1-(4-Chloro-phenyl)-1H-pyrazol-4-yl]-2-pyrrolidin-1-yl-ethanone] had an IC50 of over 10 µM.

`COC(=O)C1CCN(C(C)C(=O)c2cc(C)n(-c3ccc(Cl)cc3)c2C)CC1` (stereo not shown) [Compound A46] had a half-inhibitory concentration (IC50) of over 10 µM.

A word on the IC50: it is the concentration that gives 50% inhibition. Read a low IC50 as higher potency.
